Data published in patent publication US6720346B2, “Thiazole benzamide derivatives and pharmaceutical compositions for inhibiting cell proliferation” (Agouron Pharmaceuticals, Inc., priority 2001, dated 2004).

Assays:
human CDK4/cyclin D3 = molecular target: T1, human CDK4/cyclin D3 (Homo sapiens, UniProt P11802); experiment: Inhibition of CDK4/cyclin D retinoblastoma kinase activity (Ki; % inhibition); format: biochemical; conditions: 0.03 μM compound
T1 construct: made in house; host or cells: insect cells co-infected with baculovirus vectors
T1 sequence (P11802 whole entry): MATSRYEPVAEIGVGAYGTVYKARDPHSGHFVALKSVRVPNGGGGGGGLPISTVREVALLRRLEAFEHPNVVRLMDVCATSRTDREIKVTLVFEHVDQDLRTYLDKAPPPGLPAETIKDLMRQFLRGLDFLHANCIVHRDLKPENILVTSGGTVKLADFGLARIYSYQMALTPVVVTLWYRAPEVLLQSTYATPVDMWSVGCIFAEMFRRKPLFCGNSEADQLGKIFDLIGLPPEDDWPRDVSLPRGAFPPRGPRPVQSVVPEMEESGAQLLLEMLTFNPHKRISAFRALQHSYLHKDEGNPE
T1 sequence (P30281 1-264 partner limits assumed): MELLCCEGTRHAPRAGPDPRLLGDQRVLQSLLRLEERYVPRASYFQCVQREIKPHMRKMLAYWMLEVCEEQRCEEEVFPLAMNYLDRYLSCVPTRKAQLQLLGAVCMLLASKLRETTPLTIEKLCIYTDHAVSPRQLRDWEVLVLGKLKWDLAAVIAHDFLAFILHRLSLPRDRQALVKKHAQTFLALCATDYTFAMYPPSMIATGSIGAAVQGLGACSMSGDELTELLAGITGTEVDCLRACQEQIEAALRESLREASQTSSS
In short: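 Insect-cell-expressed CDK4 with truncated cyclin D3 (1-264), 5 nM, phosphorylating His-tagged Rb fragment (386-928) with 25 μM [32/33P]ATP at pH 7.4, 30 °C, 20 min (60 min for tight binders). Filter capture, phosphorimager read; % inhibition at 30 nM compound, Ki from competitive or tight-binding fits.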

CDK2/cyclin A = molecular target: T2, CDK2/cyclin A (Homo sapiens, UniProt P24941); experiment: Inhibition of CDK2/cyclin A retinoblastoma kinase activity (Ki; % inhibition); format: biochemical; conditions: 0.03 μM compound
T2 construct: made in house; host or cells: CDK2: insect cells (baculovirus); cyclin A: E. coli
In short: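 Radiometric filter assay of CDK2/proteolyzed cyclin A (baculovirus-expressed human CDK2, 10 or 19 nM) phosphorylating an Rb fragment with 25 μM [³²P/³³P]ATP in pH 7.4 HEPES, 2% DMSO, at 30 °C for 60 or 75 min under initial-rate conditions. Library compounds screened at 30 nM for % inhibition; apparent Ki from concentration series fit to competitive or tight-binding inhibition equations.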

HCT-116 cell line = experiment: Inhibition of cell growth, MTT tetrazolium salt assay; format: cell-based; conditions: HCT-116 cells; for HCT-116 % Inhibition at 0.1 μM: 0.1 μM compound; for HCT-116 % Inhibition at 0.25 μM: 0.25 μM compound
In short: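 Growth inhibition was read as MTT-formazan absorbance at 540 nm, after 4 h with 0.2 mg/mL MTT. Before that, HCT-116 cells had been exposed 3–5 days at 37 °C to compounds in 0.5% (v/v) DMSO, added 4 h after plating. 50% and 90% inhibitory concentrations were taken from semi-log concentration–inhibition plots versus vehicle controls.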

Structure (SMILES)	CDK4 % Inhibition at 0.03 μM (human CDK4/cyclin D3)	CDK2 % Inhibition at 0.03 μM (CDK2/cyclin A)	HCT-116 % Inhibition at 0.1 μM (HCT-116 cell line)	HCT-116 % Inhibition at 0.25 μM (HCT-116 cell line)	CDK4 % Inhibition at 0.03 μM (human CDK4/cyclin D3; 0.03 µM)	CDK2 % Inhibition at 0.03 μM (CDK2/cyclin A; 0.03 µM)	HCT-116 % Inhibition at 0.1 μM (HCT-116 cell line; 0.1 µM)	HCT-116 % Inhibition at 0.25 μM (HCT-116 cell line; 0.25 µM)
CC(=O)N[C@@H]1CCN(C(=O)c2ccc(Nc3nc(N)c(C(=O)c4c(F)cccc4F)s3)cc2)C1 [Example G373]	10%	−7%	31%	48%	–	–	–	–
CCN(CC)CCN1CCN(C(=O)c2ccc(Nc3nc(N)c(C(=O)c4c(F)cccc4F)s3)cc2)CC1 [Example G374]	13%	−10%	21%	41%	–	–	–	–
C[C@@H](CNC(=O)c1ccc(Nc2nc(N)c(C(=O)c3c(F)cccc3F)s2)cc1)c1ccccc1 [Example G375]	−3%	10%	26%	62%	–	–	–	–
Nc1nc(Nc2ccc(C(=O)NC3c4ccccc4CC3O)cc2)sc1C(=O)c1c(F)cccc1F (stereo not drawn) [Example G376]	−6%	20%	27%	64%	–	–	–	–
Nc1nc(Nc2ccc(C(=O)Nc3cccc(SC(F)(F)F)c3)cc2)sc1C(=O)c1c(F)cccc1F [Example G377]	−1%	10%	25%	55%	–	–	–	–
Nc1nc(Nc2ccc(C(=O)Nc3cccc(O)c3)cc2)sc1C(=O)c1c(F)cccc1F [Example G378]	8%	40%	27%	60%	–	–	–	–
Nc1nc(Nc2ccc(C(=O)N(CCO)Cc3ccccc3)cc2)sc1C(=O)c1c(F)cccc1F [Example G379]	8%	13%	31%	54%	–	–	–	–
CCOc1ccccc1CCNC(=O)c1ccc(Nc2nc(N)c(C(=O)c3c(F)cccc3F)s2)cc1 [Example G380]	7%	−19%	26%	50%	–	–	–	–
Nc1nc(Nc2ccc(C(=O)NC3CCN(Cc4ccccc4)C3)cc2)sc1C(=O)c1c(F)cccc1F (stereo not drawn) [Example G381]	–	–	–	–	38%	5%	43%	88%
CN(C)CCN1CCN(C(=O)c2ccc(Nc3nc(N)c(C(=O)c4c(F)cccc4F)s3)cc2)CC1 [Example G382]	8%	−17%	17%	47%	–	–	–	–
Nc1nc(Nc2ccc(C(=O)NC(CO)CSCc3ccccc3)cc2)sc1C(=O)c1c(F)cccc1F (stereo not drawn) [Example G383]	−10%	15%	33%	51%	–	–	–	–
Nc1ccccc1CNC(=O)c1ccc(Nc2nc(N)c(C(=O)c3c(F)cccc3F)s2)cc1 [Example G384]	23%	45%	38%	84%	–	–	–	–
CCN(CCCCO)C(=O)c1ccc(Nc2nc(N)c(C(=O)c3c(F)cccc3F)s2)cc1 [Example G385]	−1%	1%	28%	50%	–	–	–	–
CSCCC(CO)NC(=O)c1ccc(Nc2nc(N)c(C(=O)c3c(F)cccc3F)s2)cc1 (stereo not drawn) [Example G386]	12%	19%	28%	51%	–	–	–	–
CN(CCC1OCCO1)C(=O)c1ccc(Nc2nc(N)c(C(=O)c3c(F)cccc3F)s2)cc1 [Example G387]	11%	10%	32%	52%	–	–	–	–
